The source of these data is paper PMC4076210, “Discovery of Novel AKT Inhibitors with Enhanced Anti-Tumor Effects in Combination with the MEK Inhibitor” (PLoS ONE, 2014).

Molecules are shown by their SMILES. Like-named read-outs stand apart in the source and are kept apart here.

One test concerns the target T1, IRAK4(h) (Homo sapiens, UniProt Q9NWZ3).
T1 construct: purchased Millipore KinaseProfiler
T1 sequence (Q9NWZ3 1-460): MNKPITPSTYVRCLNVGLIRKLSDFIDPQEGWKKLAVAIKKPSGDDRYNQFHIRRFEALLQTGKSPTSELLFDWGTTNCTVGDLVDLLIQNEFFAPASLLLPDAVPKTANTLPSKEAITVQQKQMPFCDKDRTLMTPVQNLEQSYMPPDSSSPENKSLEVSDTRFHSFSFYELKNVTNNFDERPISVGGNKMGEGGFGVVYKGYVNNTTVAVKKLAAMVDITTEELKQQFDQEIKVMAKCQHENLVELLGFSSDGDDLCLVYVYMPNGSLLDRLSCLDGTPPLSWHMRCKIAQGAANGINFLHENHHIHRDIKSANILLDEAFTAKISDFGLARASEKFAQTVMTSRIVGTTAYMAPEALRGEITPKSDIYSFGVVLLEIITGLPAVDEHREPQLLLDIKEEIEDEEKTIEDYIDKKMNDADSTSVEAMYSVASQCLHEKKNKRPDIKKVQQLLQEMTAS
As to the kind of experiment: Kinase panel. It is filed as biochemical.

In another test the target is T2, ErbB4(h) (Homo sapiens, UniProt Q15303).
T2 construct: purchased Millipore KinaseProfiler
T2 sequence (Q15303 26-1308): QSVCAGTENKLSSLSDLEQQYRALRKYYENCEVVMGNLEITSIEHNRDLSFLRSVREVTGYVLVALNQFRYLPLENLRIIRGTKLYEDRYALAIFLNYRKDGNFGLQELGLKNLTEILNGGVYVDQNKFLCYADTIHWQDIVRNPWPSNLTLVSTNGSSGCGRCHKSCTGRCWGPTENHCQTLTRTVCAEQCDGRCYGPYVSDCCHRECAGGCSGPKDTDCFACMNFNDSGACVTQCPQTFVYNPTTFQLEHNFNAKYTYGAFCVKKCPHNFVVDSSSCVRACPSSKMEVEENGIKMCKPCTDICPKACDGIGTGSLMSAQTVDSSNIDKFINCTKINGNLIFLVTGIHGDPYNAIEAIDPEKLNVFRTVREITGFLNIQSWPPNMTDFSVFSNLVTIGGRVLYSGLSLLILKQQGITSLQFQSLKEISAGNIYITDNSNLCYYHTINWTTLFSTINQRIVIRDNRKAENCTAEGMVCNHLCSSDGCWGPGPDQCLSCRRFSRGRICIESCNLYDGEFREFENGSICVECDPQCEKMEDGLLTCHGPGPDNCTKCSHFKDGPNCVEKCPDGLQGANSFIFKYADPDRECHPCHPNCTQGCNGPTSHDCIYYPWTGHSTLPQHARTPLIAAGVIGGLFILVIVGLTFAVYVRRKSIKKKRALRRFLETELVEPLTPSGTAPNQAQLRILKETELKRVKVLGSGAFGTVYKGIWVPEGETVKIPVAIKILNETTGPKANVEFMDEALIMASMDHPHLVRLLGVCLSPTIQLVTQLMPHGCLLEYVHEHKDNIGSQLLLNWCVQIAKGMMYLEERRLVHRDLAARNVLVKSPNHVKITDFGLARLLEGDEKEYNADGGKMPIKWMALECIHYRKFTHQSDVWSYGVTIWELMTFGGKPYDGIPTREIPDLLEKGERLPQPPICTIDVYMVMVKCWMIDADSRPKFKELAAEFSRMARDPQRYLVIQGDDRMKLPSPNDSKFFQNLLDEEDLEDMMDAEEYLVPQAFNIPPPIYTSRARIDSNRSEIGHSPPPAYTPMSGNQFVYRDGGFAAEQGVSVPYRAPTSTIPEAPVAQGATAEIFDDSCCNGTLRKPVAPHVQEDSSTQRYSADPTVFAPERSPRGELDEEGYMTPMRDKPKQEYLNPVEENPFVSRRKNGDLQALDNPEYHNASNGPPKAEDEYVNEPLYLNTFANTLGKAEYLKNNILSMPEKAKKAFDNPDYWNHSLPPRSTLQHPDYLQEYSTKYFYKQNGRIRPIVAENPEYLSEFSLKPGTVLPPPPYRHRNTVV
As to the kind of experiment: Kinase panel. It is filed as biochemical.

Another test deals with T3, PKA(h) (Homo sapiens, UniProt P17612).
T3 construct: purchased Millipore KinaseProfiler
As to the kind of experiment: Kinase panel. It is filed as biochemical.

A further test deals with MLCK(h). Nature of the test: Kinase panel. It is filed as biochemical, human.
A further test addresses T4, Arg(h) (Homo sapiens, UniProt P42684).
T4 construct: purchased Millipore KinaseProfiler
Nature of the test: Kinase panel. It is filed as biochemical.

Another test has as its target T5, SAPK3(h) (Homo sapiens, UniProt P53778).
T5 construct: purchased Millipore KinaseProfiler
T5 sequence (P53778 1-367): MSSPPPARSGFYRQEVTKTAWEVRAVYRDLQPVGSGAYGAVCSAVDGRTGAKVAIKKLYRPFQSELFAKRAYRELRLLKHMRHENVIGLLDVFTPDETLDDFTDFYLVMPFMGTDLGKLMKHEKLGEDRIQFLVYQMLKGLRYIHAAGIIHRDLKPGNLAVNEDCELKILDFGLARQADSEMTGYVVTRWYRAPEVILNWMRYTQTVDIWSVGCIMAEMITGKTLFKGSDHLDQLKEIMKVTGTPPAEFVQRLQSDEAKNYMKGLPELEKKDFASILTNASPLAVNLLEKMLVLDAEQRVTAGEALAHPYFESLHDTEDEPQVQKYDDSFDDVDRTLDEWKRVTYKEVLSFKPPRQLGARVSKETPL
Nature of the test: Kinase panel. Type of test: biochemical.

The target of a further test is T6, GRK5(h) (Homo sapiens, UniProt P34947).
T6 construct: purchased Millipore KinaseProfiler
T6 sequence (P34947 whole entry): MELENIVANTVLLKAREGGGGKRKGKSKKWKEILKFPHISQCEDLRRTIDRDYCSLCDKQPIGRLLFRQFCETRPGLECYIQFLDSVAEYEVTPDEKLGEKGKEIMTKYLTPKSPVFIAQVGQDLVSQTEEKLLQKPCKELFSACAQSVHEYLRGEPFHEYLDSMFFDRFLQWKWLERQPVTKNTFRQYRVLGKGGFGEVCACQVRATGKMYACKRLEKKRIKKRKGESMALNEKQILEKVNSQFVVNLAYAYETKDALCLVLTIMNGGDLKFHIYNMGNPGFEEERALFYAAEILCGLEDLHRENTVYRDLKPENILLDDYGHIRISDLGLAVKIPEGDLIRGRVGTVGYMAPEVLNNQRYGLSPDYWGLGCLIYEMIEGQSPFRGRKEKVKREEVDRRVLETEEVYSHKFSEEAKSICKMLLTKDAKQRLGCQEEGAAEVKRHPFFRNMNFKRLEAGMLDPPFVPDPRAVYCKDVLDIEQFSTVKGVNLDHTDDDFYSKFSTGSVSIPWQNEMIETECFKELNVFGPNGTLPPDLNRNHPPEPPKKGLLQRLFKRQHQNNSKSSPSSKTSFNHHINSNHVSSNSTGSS
As to the kind of experiment: Kinase panel. It is filed as biochemical.

The next test has as its target T7, CDK2/cyclinA(h) (Homo sapiens, UniProt P24941).
T7 construct: purchased Millipore KinaseProfiler
Nature of the test: Kinase panel. It is filed as biochemical.

For the next test, the system named is pGSK-3β in LNCaP. Nature of the test: phospho-GSK3β ELISA. To be noted: Homo sapiens, 1 h, mean ± std dev. It is filed as cell-based. How it is done:
(§1) ELISA plates were prepared by coating with anti-GSK3β antibody (R&D Systems), and blocked with 5% Milk/0.1% Tween-20. Cells were seeded at 25,000 cells/96-well overnight and treated with DMSO or various concentrations of drug for 1 h. Cells were lysed in 20 mM Tris-HCl (pH 8.0), 137 mM NaCl, 2 mM EDTA, 10% glycerol and 1% Triton X-100 and lysates transferred to ELISA plates and incubated overnight. The plates were washed and incubated with rabbit anti-phospho-GSK3β (Ser9) antibody (R&D Systems) for 1 h. After washing, plates were developed using HRP-linked anti-rabbit IgG, and 3,3′,5,5′-tetramethylbenzidine as substrate. Absorption was measured in a microplate spectrophotometer at 450 nm. The phospho-PRAS40 ELISA followed similar methodology as above with the exception of using a commercially available PRAS40 (pThr246) kit (Biosource) and following manufacturers' instructions for the ELISA analysis.
Background: An ELISA detects its analyte on a solid surface through an enzyme-linked reagent.

The next test has as its system pGSK-3β in BT474. Nature of the test: phospho-GSK3β ELISA. It is filed as cell-based. The settings on record: Homo sapiens, BT-474; BT474, 1 h, mean ± std dev. As to the method: as §1
The target in another test is T8, HIPK3(h) (Homo sapiens, UniProt Q9H422).
T8 construct: purchased Millipore KinaseProfiler
T8 sequence (Q9H422 whole entry): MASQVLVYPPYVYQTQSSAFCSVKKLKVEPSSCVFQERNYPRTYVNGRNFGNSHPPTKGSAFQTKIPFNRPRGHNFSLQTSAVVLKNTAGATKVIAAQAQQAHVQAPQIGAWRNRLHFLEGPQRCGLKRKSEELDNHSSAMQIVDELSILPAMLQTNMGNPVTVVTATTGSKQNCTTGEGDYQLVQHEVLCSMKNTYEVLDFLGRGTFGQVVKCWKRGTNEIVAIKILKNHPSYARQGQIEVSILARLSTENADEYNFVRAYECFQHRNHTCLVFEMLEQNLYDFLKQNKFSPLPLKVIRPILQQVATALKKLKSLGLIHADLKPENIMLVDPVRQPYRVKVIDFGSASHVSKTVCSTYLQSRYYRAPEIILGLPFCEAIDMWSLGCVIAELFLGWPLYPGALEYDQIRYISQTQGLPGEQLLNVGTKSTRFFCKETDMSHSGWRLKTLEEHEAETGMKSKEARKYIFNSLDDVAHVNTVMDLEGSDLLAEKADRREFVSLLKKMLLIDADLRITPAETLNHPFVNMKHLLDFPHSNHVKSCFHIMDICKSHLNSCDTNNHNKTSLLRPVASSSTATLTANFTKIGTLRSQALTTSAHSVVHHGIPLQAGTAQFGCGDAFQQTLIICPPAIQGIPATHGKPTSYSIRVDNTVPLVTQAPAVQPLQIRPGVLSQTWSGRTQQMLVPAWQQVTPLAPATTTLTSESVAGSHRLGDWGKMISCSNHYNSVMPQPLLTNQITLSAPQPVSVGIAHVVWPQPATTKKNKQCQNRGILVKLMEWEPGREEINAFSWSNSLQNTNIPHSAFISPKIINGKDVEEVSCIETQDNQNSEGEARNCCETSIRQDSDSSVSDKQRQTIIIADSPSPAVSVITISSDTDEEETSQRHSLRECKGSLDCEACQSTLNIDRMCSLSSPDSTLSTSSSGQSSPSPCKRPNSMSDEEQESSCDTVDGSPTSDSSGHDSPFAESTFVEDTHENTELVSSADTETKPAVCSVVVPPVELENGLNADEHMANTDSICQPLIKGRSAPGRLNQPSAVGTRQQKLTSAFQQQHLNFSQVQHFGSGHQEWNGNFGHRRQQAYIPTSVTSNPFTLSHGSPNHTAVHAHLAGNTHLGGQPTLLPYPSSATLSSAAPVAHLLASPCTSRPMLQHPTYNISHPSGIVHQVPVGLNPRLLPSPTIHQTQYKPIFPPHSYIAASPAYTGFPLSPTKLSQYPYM
As to the kind of experiment: Kinase panel. Type of test: biochemical.

The target in another test is T9, Pyk2(h) (Homo sapiens, UniProt Q14289).
T9 construct: purchased Millipore KinaseProfiler
Nature of the test: Kinase panel. It is filed as biochemical.

T4 sequence (P42684 whole entry): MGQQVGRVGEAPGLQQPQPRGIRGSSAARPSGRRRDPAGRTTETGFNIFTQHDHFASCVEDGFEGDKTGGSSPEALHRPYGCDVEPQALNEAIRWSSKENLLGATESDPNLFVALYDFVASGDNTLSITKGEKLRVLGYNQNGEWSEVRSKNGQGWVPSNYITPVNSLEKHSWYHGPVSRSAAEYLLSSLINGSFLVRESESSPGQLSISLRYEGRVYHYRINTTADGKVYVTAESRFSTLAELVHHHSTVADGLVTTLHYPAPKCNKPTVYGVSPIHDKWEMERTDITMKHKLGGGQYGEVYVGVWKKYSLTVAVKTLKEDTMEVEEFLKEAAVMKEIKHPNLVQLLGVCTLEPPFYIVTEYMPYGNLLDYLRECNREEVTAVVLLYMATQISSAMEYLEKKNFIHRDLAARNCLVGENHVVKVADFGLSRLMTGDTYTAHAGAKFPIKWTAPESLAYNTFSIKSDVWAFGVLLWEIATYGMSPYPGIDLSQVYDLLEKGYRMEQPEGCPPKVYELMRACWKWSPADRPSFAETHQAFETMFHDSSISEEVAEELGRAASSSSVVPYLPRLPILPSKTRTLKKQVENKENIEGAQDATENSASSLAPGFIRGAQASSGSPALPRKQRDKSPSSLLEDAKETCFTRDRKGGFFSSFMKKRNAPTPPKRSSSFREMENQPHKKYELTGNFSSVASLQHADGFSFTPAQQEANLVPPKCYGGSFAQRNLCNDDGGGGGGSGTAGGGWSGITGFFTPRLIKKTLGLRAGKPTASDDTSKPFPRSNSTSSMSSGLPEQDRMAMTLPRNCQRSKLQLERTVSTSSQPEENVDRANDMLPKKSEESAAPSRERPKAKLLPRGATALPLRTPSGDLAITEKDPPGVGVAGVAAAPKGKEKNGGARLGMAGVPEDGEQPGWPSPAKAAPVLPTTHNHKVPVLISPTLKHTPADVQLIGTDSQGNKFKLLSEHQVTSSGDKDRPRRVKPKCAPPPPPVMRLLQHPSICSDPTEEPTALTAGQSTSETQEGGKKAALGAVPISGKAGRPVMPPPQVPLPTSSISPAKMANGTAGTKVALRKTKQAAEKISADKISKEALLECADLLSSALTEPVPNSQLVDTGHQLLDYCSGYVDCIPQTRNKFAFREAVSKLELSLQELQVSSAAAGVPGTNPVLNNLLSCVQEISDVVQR

Take `Cn1ncc(Cl)c1-c1cc(C(=O)N[C@H](CN)Cc2ccc(F)c(F)c2)oc1Cl` [GSK2141795]: the inhibition at 0.5 µM on IRAK4(h) (0.5 µM, read-out: % Inhibition) was -12%; on ErbB4(h) (0.5 µM, read-out: % Inhibition), -11%; at PKA(h) (0.5 µM, read-out: % Inhibition) it was 99%; at Arg(h) (0.5 µM, read-out: % Inhibition), -13%; at SAPK3(h) (0.5 µM, read-out: % Inhibition), -14%; on GRK5(h) (0.5 µM, read-out: % Inhibition) it was 4%. Further, the inhibition at 0.5 µM was 1% at CDK2/cyclinA(h) (0.5 µM, read-out: % Inhibition); 7% at HIPK3(h) (0.5 µM, read-out: % Inhibition); 1% at Pyk2(h) (0.5 µM, read-out: % Inhibition). Further, the inhibition at 10 µM at IRAK4(h) (10 µM, read-out: % Inhibition) was 0%; at ErbB4(h) (10 µM, read-out: % Inhibition) it was -5%; at PKA(h) (10 µM, read-out: % Inhibition), 97%; at Arg(h) (10 µM, read-out: % Inhibition), -17%; at SAPK3(h) (10 µM, read-out: % Inhibition), 14%; on GRK5(h) (10 µM, read-out: % Inhibition) it was 43%. The inhibition at 10 µM was 20% at CDK2/cyclinA(h) (10 µM, read-out: % Inhibition); 63% on HIPK3(h) (10 µM, read-out: % Inhibition); 16% on Pyk2(h) (10 µM, read-out: % Inhibition). Also, the “% Inhibition” value in the test on MLCK(h) (0.5 µM) came to 5%; in the test on MLCK(h) (10 µM) it was 58%. Besides, the figures for the concentration for half-maximal inhibition (IC50) in the test with pGSK-3β in LNCaP and with pGSK-3β in BT474 were 34 ± 5 nM and 143 ± 21 nM, respectively.

In the case of `Cn1ncc(Cl)c1-c1cc(C(=O)N[C@H](CN)Cc2cccc(F)c2)sc1Cl` [GSK2110183], the inhibition at 0.5 µM against IRAK4(h) was -15%; on ErbB4(h) it was -4%; against PKA(h) it was 94%; against Arg(h), -3%; on SAPK3(h), -6%; on GRK5(h), -8%. For the same compound, the inhibition at 0.5 µM against CDK2/cyclinA(h) is -10%; on HIPK3(h) it was -3%; on Pyk2(h) it was -7%. Also, the inhibition at 10 µM against IRAK4(h) is -5%; on ErbB4(h), 4%; at PKA(h) it was 96%; against Arg(h), -1%; on SAPK3(h) it was 20%; at GRK5(h) it was -1%. In addition, the inhibition at 10 µM on CDK2/cyclinA(h) was 1%; against HIPK3(h), 72%; against Pyk2(h), 2%. Besides, the “% Inhibition” value in the test on MLCK(h) (0.5 µM) stood at 4%; in the test on MLCK(h) (10 µM) it was 60%. Also, the IC50 with pGSK-3β in LNCaP was determined as 76 ± 16 nM; in the test on pGSK-3β in BT474, 316 ± 91 nM.

As a reminder, the inhibition is the change of the read-out against control, counted positive when it falls. A word on the % Inhibition: it is how much of the control response was suppressed. Lower therefore signals a response near the control. Broadly, the IC50 is the point on the concentration scale where inhibition reaches its midpoint. Lower therefore signals greater potency.
